Measurements: PMC8251711 (Angewandte Chemie (International Ed. in English), 2021)

Target: LAT1 (Homo sapiens, UniProt Q01650)
Test: [3H]-gabapentin uptake competition assay in LN229 cells
Type: cell-based
Conditions: read-out: IC50, [3H]-gabapentin uptake competition

Sequence of LAT1 (Q01650 whole entry): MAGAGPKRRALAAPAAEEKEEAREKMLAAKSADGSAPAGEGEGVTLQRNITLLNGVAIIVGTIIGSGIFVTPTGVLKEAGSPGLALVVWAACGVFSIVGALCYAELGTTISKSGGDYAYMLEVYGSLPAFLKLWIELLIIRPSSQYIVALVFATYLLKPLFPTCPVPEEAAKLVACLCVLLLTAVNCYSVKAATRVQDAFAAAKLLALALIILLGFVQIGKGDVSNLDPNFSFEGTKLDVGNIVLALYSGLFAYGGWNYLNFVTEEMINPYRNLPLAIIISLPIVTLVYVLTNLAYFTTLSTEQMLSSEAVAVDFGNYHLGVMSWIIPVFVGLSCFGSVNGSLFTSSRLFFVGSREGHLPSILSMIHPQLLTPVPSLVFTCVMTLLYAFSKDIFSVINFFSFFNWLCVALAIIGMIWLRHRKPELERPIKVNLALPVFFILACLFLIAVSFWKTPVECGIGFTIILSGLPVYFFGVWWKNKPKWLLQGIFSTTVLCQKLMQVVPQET
Sequence of LAT1 (P08195 102-630 partner): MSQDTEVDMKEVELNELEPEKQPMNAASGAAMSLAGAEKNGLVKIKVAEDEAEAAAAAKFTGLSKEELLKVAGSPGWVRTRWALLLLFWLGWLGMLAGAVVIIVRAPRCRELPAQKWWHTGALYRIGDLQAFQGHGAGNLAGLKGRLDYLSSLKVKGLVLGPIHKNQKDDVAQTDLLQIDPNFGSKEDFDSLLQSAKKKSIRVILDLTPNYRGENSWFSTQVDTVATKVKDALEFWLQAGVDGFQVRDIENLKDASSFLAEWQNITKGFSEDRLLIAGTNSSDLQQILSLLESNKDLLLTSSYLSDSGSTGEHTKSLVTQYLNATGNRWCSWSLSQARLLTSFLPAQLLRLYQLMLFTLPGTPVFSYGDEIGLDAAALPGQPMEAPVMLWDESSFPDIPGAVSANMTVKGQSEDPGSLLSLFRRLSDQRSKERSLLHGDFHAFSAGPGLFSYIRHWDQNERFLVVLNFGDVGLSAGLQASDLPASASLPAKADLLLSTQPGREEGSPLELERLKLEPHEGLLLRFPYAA

## Nc1cc(COc2c(Cl)cc(C[C@H](N)C(=O)O)cc2Cl)c2oc(-c3ccccc3)nc2c1 [JPH203]
  IC50: 29 nM
